# Data taken from the OligoGym collection.
# HELM strings list units from the 5' end as sugar, base in round brackets, then linkage (d deoxyribose, r ribose, m 2'-O-methyl, p phosphodiester). Strings are as the collection lists them; they lack the last nucleoside at the 3' end of the tested compound. [moe] = 2'-O-(2-methoxyethyl) (MOE); [sp] = phosphorothioate linkage; [m5C] = 5-methylcytosine
# Molecular target: SCN2A
# Test: mouse, dose not given
# Details: ASO
row,Substance,3 h FOB score [score 0-7]
1,RNA1{[moe]([m5C])[sp].[moe](A)p.[moe](T)p.[moe](G)p.d(T)[sp].d(A)[sp].d(A)[sp].d([m5C])[sp].d([m5C])[sp].d(T)[sp].d(T)[sp].d(T)[sp].d(A)[sp].d(T)[sp].[moe](A)p.[moe]([m5C])p.[moe](A)p.[moe](T)[sp].[moe](T)}$$$$ (last 3' nucleoside missing),0
2,RNA1{[moe](A)[sp].[moe](T)p.[moe](G)p.[moe](T)p.d(A)[sp].d(A)[sp].d(T)[sp].d([m5C])[sp].d(A)[sp].d([m5C])[sp].d(T)[sp].d(T)[sp].d(T)[sp].d([m5C])[sp].[moe](A)p.[moe](T)p.[moe]([m5C])p.[moe]([m5C])[sp].[moe](A)}$$$$ (last 3' nucleoside missing),0.33
3,RNA1{[moe](G)[sp].[moe]([m5C])p.[moe](T)p.[moe](T)p.[moe](T)p.d([m5C])[sp].d([m5C])[sp].d([m5C])[sp].d(T)[sp].d(T)[sp].d(T)[sp].d(A)[sp].d(T)[sp].d(T)[sp].d([m5C])[sp].[moe](A)p.[moe](A)p.[moe](T)[sp].[moe](A)}$$$$ (last 3' nucleoside missing),0
4,RNA1{[moe](A)[sp].[moe]([m5C])p.[moe]([m5C])p.[moe]([m5C])p.[moe](A)[sp].d(G)[sp].d(T)[sp].d(T)[sp].d(T)[sp].d(T)[sp].d(T)[sp].d(T)[sp].d([m5C])[sp].[moe](A)p.[moe](T)p.[moe](T)[sp].[moe](G)}$$$$ (last 3' nucleoside missing),1.33
5,RNA1{[moe](A)[sp].[moe]([m5C])p.[moe](G)p.[moe](A)p.d([m5C])[sp].d(A)[sp].d(T)[sp].d(A)[sp].d(T)[sp].d(T)[sp].d(T)[sp].d(T)[sp].d(T)[sp].d([m5C])[sp].[moe](T)p.[moe](A)p.[moe]([m5C])p.[moe](A)[sp].[moe]([m5C])}$$$$ (last 3' nucleoside missing),0
6,RNA1{[moe](G)[sp].[moe](T)p.[moe](T)p.[moe]([m5C])p.[moe]([m5C])p.d(A)[sp].d(T)[sp].d(T)[sp].d(A)[sp].d(A)[sp].d(A)[sp].d([m5C])[sp].d(T)[sp].d(A)[sp].d(A)[sp].[moe](G)p.[moe](G)p.[moe]([m5C])[sp].[moe](T)}$$$$ (last 3' nucleoside missing),1
7,RNA1{[moe](G)[sp].[moe](T)p.[moe]([m5C])p.[moe](T)p.d([m5C])[sp].d(T)[sp].d(T)[sp].d(T)[sp].d([m5C])[sp].d(T)[sp].d(T)[sp].d(A)[sp].d(T)[sp].d(T)[sp].[moe](T)p.[moe]([m5C])p.[moe](T)p.[moe](G)[sp].[moe](T)}$$$$ (last 3' nucleoside missing),0
8,RNA1{[moe](G)[sp].[moe](T)p.[moe](T)p.[moe](T)p.d(T)[sp].d(T)[sp].d(T)[sp].d([m5C])[sp].d(A)[sp].d(T)[sp].d(T)[sp].d(G)[sp].d([m5C])[sp].d(A)[sp].[moe](T)p.[moe]([m5C])p.[moe]([m5C])p.[moe](T)[sp].[moe]([m5C])}$$$$ (last 3' nucleoside missing),1
9,RNA1{[moe]([m5C])[sp].[moe]([m5C])p.[moe](A)p.[moe]([m5C])p.[moe](G)p.[moe]([m5C])p.d(T)[sp].d(T)[sp].d(A)[sp].d([m5C])[sp].d(A)[sp].d(T)[sp].d([m5C])[sp].d(A)[sp].d(A)[sp].d(A)[sp].[moe]([m5C])p.[moe](A)[sp].[moe](T)}$$$$ (last 3' nucleoside missing),0
10,RNA1{[moe](G)[sp].[moe](A)p.[moe]([m5C])p.[moe]([m5C])p.[moe](G)p.d(T)[sp].d([m5C])[sp].d(T)[sp].d([m5C])[sp].d(T)[sp].d(T)[sp].d(T)[sp].d([m5C])[sp].d(T)[sp].d(T)[sp].[moe](A)p.[moe](T)p.[moe](T)[sp].[moe](T)}$$$$ (last 3' nucleoside missing),0
11,RNA1{[moe](T)[sp].[moe](G)p.[moe](G)p.[moe](A)p.[moe]([m5C])p.[moe]([m5C])p.d(G)[sp].d(T)[sp].d([m5C])[sp].d(T)[sp].d([m5C])[sp].d(T)[sp].d(T)[sp].d(T)[sp].d([m5C])[sp].d(T)[sp].[moe](T)p.[moe](A)[sp].[moe](T)}$$$$ (last 3' nucleoside missing),0
12,RNA1{[moe]([m5C])[sp].[moe](G)p.[moe](A)p.[moe](A)p.[moe](T)p.d(T)[sp].d([m5C])[sp].d(T)[sp].d(A)[sp].d(T)[sp].d(T)[sp].d(T)[sp].d(T)[sp].d(A)[sp].d(T)[sp].[moe](A)p.[moe](A)p.[moe](A)[sp].[moe](T)}$$$$ (last 3' nucleoside missing),1.67
13,RNA1{[moe](G)[sp].[moe]([m5C])p.[moe](A)p.[moe](T)p.d(A)[sp].d(T)[sp].d(T)[sp].d([m5C])[sp].d(T)[sp].d(A)[sp].d(A)[sp].d([m5C])[sp].d(A)[sp].d(T)[sp].[moe](G)p.[moe](G)p.[moe](T)p.[moe]([m5C])[sp].[moe](T)}$$$$ (last 3' nucleoside missing),1.67
14,RNA1{[moe](T)[sp].[moe](G)p.[moe](T)p.[moe](A)p.d(A)[sp].d([m5C])[sp].d([m5C])[sp].d(T)[sp].d(T)[sp].d(T)[sp].d(A)[sp].d(T)[sp].d(A)[sp].d([m5C])[sp].[moe](A)p.[moe](T)p.[moe](T)p.[moe](T)[sp].[moe](A)}$$$$ (last 3' nucleoside missing),0
15,RNA1{[moe](G)[sp].[moe](A)p.[moe]([m5C])p.[moe]([m5C])p.[moe](G)p.[moe](A)p.d(A)[sp].d(T)[sp].d(T)[sp].d([m5C])[sp].d(T)[sp].d(A)[sp].d(T)[sp].d(T)[sp].d(T)[sp].d(T)[sp].[moe](A)p.[moe](T)[sp].[moe](A)}$$$$ (last 3' nucleoside missing),0
16,RNA1{[moe](G)[sp].[moe](T)p.[moe](A)p.[moe](A)p.[moe]([m5C])p.d([m5C])[sp].d(T)[sp].d(T)[sp].d(T)[sp].d(A)[sp].d(T)[sp].d(A)[sp].d([m5C])[sp].d(A)[sp].d(T)[sp].[moe](T)p.[moe](T)p.[moe](A)[sp].[moe](A)}$$$$ (last 3' nucleoside missing),0.33
17,RNA1{[moe](A)[sp].[moe](T)p.[moe](G)p.[moe](G)p.[moe](T)p.d(T)[sp].d(G)[sp].d(G)[sp].d(A)[sp].d(A)[sp].d(A)[sp].d(T)[sp].d(A)[sp].d([m5C])[sp].d(A)[sp].[moe](G)p.[moe]([m5C])p.[moe](T)[sp].[moe](G)}$$$$ (last 3' nucleoside missing),1
18,RNA1{[moe](A)[sp].[moe]([m5C])p.[moe]([m5C])p.[moe](A)p.[moe]([m5C])p.[moe](G)p.d([m5C])[sp].d(T)[sp].d(T)[sp].d(A)[sp].d([m5C])[sp].d(A)[sp].d(T)[sp].d([m5C])[sp].d(A)[sp].d(A)[sp].[moe](A)p.[moe]([m5C])[sp].[moe](A)}$$$$ (last 3' nucleoside missing),0
19,RNA1{[moe](A)[sp].[moe](T)p.[moe]([m5C])p.[moe](A)p.[moe]([m5C])p.d(T)[sp].d(T)[sp].d(T)[sp].d([m5C])[sp].d(A)[sp].d(T)[sp].d([m5C])[sp].d([m5C])[sp].d(A)[sp].d([m5C])[sp].[moe](G)p.[moe](A)p.[moe]([m5C])[sp].[moe](A)}$$$$ (last 3' nucleoside missing),1
20,RNA1{[moe](G)[sp].[moe](A)p.[moe]([m5C])p.[moe]([m5C])p.[moe](G)p.d(A)[sp].d(A)[sp].d(T)[sp].d(T)[sp].d([m5C])[sp].d(T)[sp].d(A)[sp].d(T)[sp].d(T)[sp].d(T)[sp].[moe](T)p.[moe](A)p.[moe](T)[sp].[moe](A)}$$$$ (last 3' nucleoside missing),1
21,RNA1{[moe](A)[sp].[moe](G)p.[moe]([m5C])p.[moe](A)p.[moe](T)p.[moe](G)p.d(T)[sp].d(T)[sp].d(T)[sp].d(A)[sp].d(T)[sp].d([m5C])[sp].d(T)[sp].d(T)[sp].d(A)[sp].d(G)[sp].[moe](T)p.[moe](T)[sp].[moe]([m5C])}$$$$ (last 3' nucleoside missing),1
22,RNA1{[moe](A)[sp].[moe](T)p.[moe](G)p.[moe](T)p.[moe](A)p.[moe](A)p.d(T)[sp].d([m5C])[sp].d(A)[sp].d([m5C])[sp].d(T)[sp].d(T)[sp].d(T)[sp].d([m5C])[sp].d(A)[sp].d(T)[sp].[moe]([m5C])p.[moe]([m5C])[sp].[moe](A)}$$$$ (last 3' nucleoside missing),0
23,RNA1{[moe](G)[sp].[moe](A)p.[moe](A)p.[moe](T)p.d(T)[sp].d([m5C])[sp].d(T)[sp].d(A)[sp].d(T)[sp].d(T)[sp].d(T)[sp].d(T)[sp].d(A)[sp].d(T)[sp].[moe](A)p.[moe](A)p.[moe](A)p.[moe](T)[sp].[moe](G)}$$$$ (last 3' nucleoside missing),0.67
24,RNA1{[moe]([m5C])[sp].[moe](T)p.[moe](G)p.[moe](G)p.[moe]([m5C])p.d(T)[sp].d(A)[sp].d(T)[sp].d(A)[sp].d([m5C])[sp].d(T)[sp].d([m5C])[sp].d(A)[sp].d(T)[sp].d(T)[sp].[moe](G)p.[moe]([m5C])p.[moe](T)[sp].[moe]([m5C])}$$$$ (last 3' nucleoside missing),0.67
25,RNA1{[moe]([m5C])[sp].[moe]([m5C])p.[moe](A)p.[moe]([m5C])p.[moe](G)p.d([m5C])[sp].d(T)[sp].d(T)[sp].d(A)[sp].d([m5C])[sp].d(A)[sp].d(T)[sp].d([m5C])[sp].d(A)[sp].d(A)[sp].[moe](A)p.[moe]([m5C])p.[moe](A)[sp].[moe](T)}$$$$ (last 3' nucleoside missing),0
26,RNA1{[moe]([m5C])[sp].[moe](T)p.[moe](G)p.[moe]([m5C])p.[moe](A)p.[moe](T)p.d(G)[sp].d(T)[sp].d(A)[sp].d(A)[sp].d([m5C])[sp].d([m5C])[sp].d(T)[sp].d(T)[sp].d(T)[sp].d(A)[sp].[moe](T)p.[moe](A)[sp].[moe]([m5C])}$$$$ (last 3' nucleoside missing),0
